Results as given in ChEMBL document CHEMBL1201862, “PubChem BioAssay data set” (2004).
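Compound exposure: 48 hours, 5 concentrations, 96-well plates. GI50 = concentration required for 50% inhibition of growth.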 The source made the active and inactive calls. Cut-off read from the data, not from the text of the source: active = GI50 up to about 1.1 µM and inactive = higher. Where a SMILES comes first, the peptide text is derived from it. [ ]: non-standard residue; d: D form. The star is where a group is joined. NMeF = CN[C@@H](Cc1ccccc1)C(=O)O; NMeV = CN[C@H](C(=O)O)C(C)C; Boc = CC(C)(C)OC(=O)*; OBn = c1ccc(CO*)cc1

Legend:
Assay in all cases: growth of human tumour cells (NCI), 48 h
[1] = system: SF-539
[2] = system: HT-29
[3] = system: DU-145
[4] = system: CCRF-CEM
[5] = system: IGROV-1
[6] = system: SW-620
[7] = system: UO-31
[8] = system: MCF7
[9] = system: MDA-MB-231
[10] = system: PC-3
[11] = system: NCI-H460
[12] = system: COLO 205
[13] = system: HOP-62
[14] = system: OVCAR-5
[15] = system: HOP-92
[16] = system: MDA-MB-435
[17] = system: BT-549
[18] = system: CAKI-1
[19] = system: HL-60
[20] = system: NCI-H522

SMILES	GI50 [1]	GI50 [2]	GI50 [3]	GI50 [4]	GI50 [5]	GI50 [6]	GI50 [7]	GI50 [8]	GI50 [9]	GI50 [10]	GI50 [11]	GI50 [12]	GI50 [13]	GI50 [14]	GI50 [15]	GI50 [16]	GI50 [17]	GI50 [18]	GI50 [19]	GI50 [20]
CN(C)C(=S)NC(=S)Nc1ccc2ccccc2c1	15.1 µM (inactive)	12 µM (inactive)	18.2 µM (inactive)	0.804 µM (active)	14.4 µM (inactive)	9.89 µM (inactive)	16.1 µM (inactive)	10.3 µM (inactive)	20 µM (inactive)	6.1 µM (inactive)	3.94 µM (inactive)	13.7 µM (inactive)	18.4 µM (inactive)	21.2 µM (inactive)	17 µM (inactive)	18.8 µM (inactive)	16 µM (inactive)	13.9 µM (inactive)	5.69 µM (inactive)	5.7 µM (inactive)
C/N=c1\sc2nc(C#N)c(C#N)nc2n1C	38.7 µM (inactive)	15.9 µM (inactive)	36.6 µM (inactive)	19.7 µM (inactive)	25.2 µM (inactive)	18.4 µM (inactive)	20.4 µM (inactive)	18.5 µM (inactive)	40.1 µM (inactive)	40.2 µM (inactive)	19.1 µM (inactive)	16.4 µM (inactive)	23.4 µM (inactive)	19.2 µM (inactive)	21.2 µM (inactive)	21 µM (inactive)	28.8 µM (inactive)	23.8 µM (inactive)	10.9 µM (inactive)	15 µM (inactive)
NC(=S)N/N=C\c1nccc2ccccc12	0.155 µM (active)	0.485 µM (active)	0.404 µM (active)	0.27 µM (active)	0.42 µM (active)	0.561 µM (active)	0.36 µM (active)	0.253 µM (active)	0.46 µM (active)	0.685 µM (active)	0.267 µM (active)	0.302 µM (active)	0.321 µM (active)	0.264 µM (active)	0.264 µM (active)	0.388 µM (active)	0.424 µM (active)	0.33 µM (active)	0.327 µM (active)	0.908 µM (active)
O=C1c2cccc3cc([N+](=O)[O-])cc(c23)C(=O)N1CCCN1CCN(CCCNc2ccc3ncn4c5ccccc5c(=O)c2c34)CC1	< 0.005 µM (active)	< 0.005 µM (active)	< 0.005 µM (active)	< 0.005 µM (active)	< 0.005 µM (active)	< 0.005 µM (active)	< 0.005 µM (active)	< 0.005 µM (active)	< 0.005 µM (active)	< 0.005 µM (active)	< 0.005 µM (active)	< 0.005 µM (active)	< 0.005 µM (active)	0.00867 µM (active)	0.013 µM (active)	< 0.005 µM (active)	< 0.005 µM (active)	< 0.005 µM (active)	< 0.005 µM (active)	< 0.005 µM (active)
COc1cccc2c1C(=O)c1ccc3cc(CCl)cc(O)c3c1C2=O	0.272 µM (active)	0.207 µM (active)	0.762 µM (active)	0.309 µM (active)	1.03 µM (active)	0.127 µM (active)	0.336 µM (active)	0.289 µM (active)	0.205 µM (active)	0.243 µM (active)	0.196 µM (active)	0.203 µM (active)	0.483 µM (active)	0.157 µM (active)	0.394 µM (active)	0.198 µM (active)	0.305 µM (active)	0.733 µM (active)	0.21 µM (active)	0.552 µM (active)
O=C1C=C(c2ccccc2)OC1C1Sc2ccccc2NC1=O (stereo not given)	5.38 µM (inactive)	11.5 µM (inactive)	12.7 µM (inactive)	6.43 µM (inactive)	11.4 µM (inactive)	9.23 µM (inactive)	7.26 µM (inactive)	3.81 µM (inactive)	10.9 µM (inactive)	10.9 µM (inactive)	2.74 µM (inactive)	7.73 µM (inactive)	1.04 µM (active)	13.8 µM (inactive)	9.68 µM (inactive)	5.11 µM (inactive)	14.6 µM (inactive)	11.6 µM (inactive)	3.15 µM (inactive)	6.85 µM (inactive)
C/C(=N\NC(=S)N1CCCCCC1)c1cccc2cccnc12	0.845 µM (active)	1.4 µM (inactive)	2.95 µM (inactive)	< 0.01 µM (active)	1.86 µM (inactive)	1.55 µM (inactive)	1.94 µM (inactive)	0.984 µM (active)	2.12 µM (inactive)	3.81 µM (inactive)	0.681 µM (active)	0.459 µM (active)	1.15 µM (inactive)	> 19.9 µM (inactive)	11.7 µM (inactive)	1.71 µM (inactive)	16 µM (inactive)	0.355 µM (active)	1.25 µM (inactive)	0.193 µM (active)
CCOC(=O)/C=C(/C(=O)OCC)n1ccc(=O)n(Cc2cnnn2COCCOC(C)=O)c1=O	11 µM (inactive)	17.5 µM (inactive)	20.7 µM (inactive)	0.713 µM (active)	17.9 µM (inactive)	3.98 µM (inactive)	16 µM (inactive)	10.4 µM (inactive)	18.6 µM (inactive)	17.5 µM (inactive)	> 43 µM (inactive)	2.92 µM (inactive)	> 73.1 µM (inactive)	18.2 µM (inactive)	2.08 µM (inactive)	16.6 µM (inactive)	19.5 µM (inactive)	5.93 µM (inactive)	0.018 µM (active)	1.95 µM (inactive)
COC(=O)CC(C#N)(OP1(=O)OC(c2ccccc2)C(C)N1C)c1ccccc1 (stereo not given)	37.5 µM (inactive)	23.8 µM (inactive)	32.4 µM (inactive)	11.5 µM (inactive)	34.4 µM (inactive)	17.3 µM (inactive)	12.1 µM (inactive)	28.2 µM (inactive)	42.4 µM (inactive)	37 µM (inactive)	20.4 µM (inactive)	34.5 µM (inactive)	30.7 µM (inactive)	27.4 µM (inactive)	32.3 µM (inactive)	21.4 µM (inactive)	36.2 µM (inactive)	25.4 µM (inactive)	23.8 µM (inactive)	59 µM (inactive)
CC1=NN(c2nc(N)nc(/C(C#N)=C/c3cccn3-c3cc(Cl)cc(Cl)c3)n2)C(C)(C)C1	> 100 µM (inactive)	> 100 µM (inactive)	> 100 µM (inactive)	4.47 µM (inactive)	> 100 µM (inactive)	> 100 µM (inactive)	> 100 µM (inactive)	> 100 µM (inactive)	41.2 µM (inactive)	11.5 µM (inactive)	> 100 µM (inactive)	> 100 µM (inactive)	10.1 µM (inactive)	> 100 µM (inactive)	> 100 µM (inactive)	> 100 µM (inactive)	> 100 µM (inactive)	> 100 µM (inactive)	14.8 µM (inactive)	> 100 µM (inactive)
O=c1ccn(C2OC(CO)C(O)C2[Se]c2ccccc2)c(=O)[nH]1 (stereo not given)	> 100 µM (inactive)	> 100 µM (inactive)	> 100 µM (inactive)	> 100 µM (inactive)	> 100 µM (inactive)	> 100 µM (inactive)	> 100 µM (inactive)	> 100 µM (inactive)	> 100 µM (inactive)	> 100 µM (inactive)	> 100 µM (inactive)	> 100 µM (inactive)	> 100 µM (inactive)	> 100 µM (inactive)	> 100 µM (inactive)	> 100 µM (inactive)	> 100 µM (inactive)	> 100 µM (inactive)	> 100 µM (inactive)	99.1 µM (inactive)
CC(=O)OCc1ccc2oc(=O)c(C(=O)Oc3ccccc3)cc2c1	> 100 µM (inactive)	30.1 µM (inactive)	> 100 µM (inactive)	> 100 µM (inactive)	> 100 µM (inactive)	32.9 µM (inactive)	35.2 µM (inactive)	30.3 µM (inactive)	27.8 µM (inactive)	16.2 µM (inactive)	67.1 µM (inactive)	30.4 µM (inactive)	> 100 µM (inactive)	> 100 µM (inactive)	20.3 µM (inactive)	61.9 µM (inactive)	> 100 µM (inactive)	20 µM (inactive)	52.1 µM (inactive)	> 100 µM (inactive)
COc1cccc(-c2nc(N)c(C#N)c3c2CCS(=O)(=O)c2ccc(C)cc2-3)c1	33.6 µM (inactive)	9.68 µM (inactive)	37.6 µM (inactive)	14.6 µM (inactive)	15.2 µM (inactive)	> 34.1 µM (inactive)	40.3 µM (inactive)	37.9 µM (inactive)	21.8 µM (inactive)	15.8 µM (inactive)	10.8 µM (inactive)	8.05 µM (inactive)	30.2 µM (inactive)	> 100 µM (inactive)	68.7 µM (inactive)	4.85 µM (inactive)	52 µM (inactive)	9.98 µM (inactive)	5.08 µM (inactive)	2.68 µM (inactive)
CC(C)[C@@H](C(=O)N1CCC[C@H]1C(=O)OCc1ccccc1)N(C)C(=O)[C@H](C(C)C)N(C)C(=O)[C@H](Cc1ccccc1)N(C)C(=O)[C@H](NC(=O)OC(C)(C)C)C(C)C (Boc-[dV][NMeF][NMeV][NMeV]P-OBn)	> 50 µM (inactive)	> 50 µM (inactive)	> 50 µM (inactive)	> 50 µM (inactive)	> 50 µM (inactive)	> 50 µM (inactive)	> 50 µM (inactive)	> 50 µM (inactive)	> 50 µM (inactive)	> 50 µM (inactive)	> 50 µM (inactive)	> 50 µM (inactive)	> 50 µM (inactive)	> 50 µM (inactive)	> 50 µM (inactive)	> 50 µM (inactive)	> 50 µM (inactive)	> 50 µM (inactive)	> 50 µM (inactive)	> 50 µM (inactive)
